target: T1, b-Raf(V600E) (Homo sapiens, UniProt P15056, V600E); experiment: Raf/Mek Amplified Luminescence Proximity Homogeneous Assay (Alpha Screen), b-Raf(V600E); type: biochemical; conditions: mutant b-Raf(V600E), read-out: mut-b-RAF (IC50 in uM)
T1 construct: made in house
How it was run: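 Active b-Raf(V600E) (~4 pM) pre-incubated 60 min at room temperature with compound and kinase-dead biotinylated Mek (~10 nM) in Tris pH 7.5, MgCl2, BSA, DTT; ATP-started reaction ran 3 h, EDTA-stopped. Phospho-MEK detected by anti-p-MEK AlphaScreen luminescence; IC50 by non-linear regression.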

T1 sequence (P15056 whole entry V600E): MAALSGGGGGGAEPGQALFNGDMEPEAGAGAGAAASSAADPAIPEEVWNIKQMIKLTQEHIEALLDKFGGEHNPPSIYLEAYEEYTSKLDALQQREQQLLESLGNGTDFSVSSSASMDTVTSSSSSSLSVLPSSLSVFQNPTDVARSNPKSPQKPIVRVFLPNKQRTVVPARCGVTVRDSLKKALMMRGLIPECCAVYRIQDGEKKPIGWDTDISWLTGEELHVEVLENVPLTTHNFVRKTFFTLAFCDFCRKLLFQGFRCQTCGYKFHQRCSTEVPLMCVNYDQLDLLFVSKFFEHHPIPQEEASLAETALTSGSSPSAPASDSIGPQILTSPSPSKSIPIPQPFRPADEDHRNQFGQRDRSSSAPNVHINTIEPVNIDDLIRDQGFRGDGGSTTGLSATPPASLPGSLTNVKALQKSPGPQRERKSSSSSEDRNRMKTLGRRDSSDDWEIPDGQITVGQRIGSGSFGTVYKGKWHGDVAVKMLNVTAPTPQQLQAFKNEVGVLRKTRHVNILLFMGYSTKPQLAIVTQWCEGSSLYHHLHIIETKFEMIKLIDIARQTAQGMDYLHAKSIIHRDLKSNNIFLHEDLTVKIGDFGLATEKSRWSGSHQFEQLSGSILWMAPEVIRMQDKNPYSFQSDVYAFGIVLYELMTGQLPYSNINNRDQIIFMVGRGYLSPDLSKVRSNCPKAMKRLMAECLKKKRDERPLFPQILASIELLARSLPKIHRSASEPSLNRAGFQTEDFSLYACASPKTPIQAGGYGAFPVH

SMILES	IC50 [µM]
COc1cc(-c2nc(-c3ccc(F)cc3)oc2-c2ccnc(NCC(C)C)n2)cnc1N [Compound 220, 4-(4-(6-amino-5-methoxypyridin-3-yl)-2-(4-fluorophenyl)oxazol-5-yl)-N-isobutylpyrimidin-2-amine]	0.002
COc1nc(-c2nc(-c3ccc(C(F)(F)F)cc3)oc2-c2ccnc(NCC(C)C)n2)cnc1N [Compound 223, 4-(4-(5-amino-6-methoxypyrazin-2-yl)-2-(4-(trifluoromethyl)phenyl)oxazol-5-yl)-N-isobutylpyrimidin-2-amine]	0.011
COc1cc(-c2nc(-c3ccc(C(F)(F)F)cc3)oc2-c2ccnc(NCC(C)C)n2)cnc1N [Compound 224, 4-(4-(6-amino-5-methoxypyridin-3-yl)-2-(4-(trifluoromethyl)phenyl)oxazol-5-yl)-N-isobutylpyrimidin-2-amine]	0.014
COCC(=O)N[C@@H](C)CNc1nccc(-c2[nH]c(C(C)C)nc2-c2cnc(N)c(OC)n2)n1 [Compound 227, (S)-N-(1-(4-(4-(5-amino-6-methoxypyrazin-2-yl)-2-isopropyl-1H-imidazol-5-yl)pyrimidin-2-ylamino)propan-2-yl)-2-methoxyacetamide]	0.0003
COCC(=O)N[C@@H](C)CNc1nccc(-c2oc(-c3ccc(C(F)(F)F)cc3)nc2-c2cnc(N)c(OC)n2)n1 [Compound 229, (S)-N-(1-(4-(4-(5-amino-6-methoxypyrazin-2-yl)-2-(4-(trifluoromethyl)phenyl)-oxazol-5-yl)pyrimidin-2-ylamino)propan-2-yl)-2-methoxyacetamide]	0.003

Continued, values first:

IC50 [µM]	SMILES
0.0003	CNC(=O)N[C@@H](C)CNc1nccc(-c2[nH]c(C(C)(C)C)nc2-c2cnc(N)c(OC)c2)n1 [Compound 219, (S)-1-(1-(4-(4-(6-amino-5-methoxypyridin-3-yl)-2-tert-butyl-1H-imidazol-5-yl)pyrimidin-2-ylamino)propan-2-yl)-3-methylurea]
0.0002	COc1cc(-c2nc(C(C)(C)C)[nH]c2-c2ccnc(Nc3ccc(C(F)(F)F)cc3)n2)cnc1N [Compound 221, 4-(4-(6-amino-5-methoxypyridin-3-yl)-2-tert-butyl-1H-imidazol-5-yl)-N-(4-(trifluoromethyl)phenyl)-pyrimidin-2-amine]
0.0002	COc1cc(-c2nc(C(C)(C)C)[nH]c2-c2ccnc(Nc3ccc(Cl)c(C(F)(F)F)c3)n2)cnc1N [Compound 222, 4-(4-(6-amino-5-methoxypyridin-3-yl)-2-tert-butyl-1H-imidazol-5-yl)-N-(4-chloro-3-(trifluoromethyl)phenyl) pyrimidin-2-amine]
0.0013	COc1cc(-c2nc(C(C)(C)C)[nH]c2-c2ccnc(NC[C@H](C)NC(=O)[C@@H](C)OC)n2)cnc1N [Compound 225, (R)-N-((S)-1-(4-(4-(6-amino-5-methoxypyridin-3-yl)-2-tert-butyl-1H-imidazol-5-yl)pyrimidin-2-ylamino)propan-2-yl)-2-methoxypropanamide]
0.0003	COCC(=O)N[C@@H](C)CNc1nccc(-c2[nH]c(C(C)C)nc2-c2cnc(N)c(OC)c2)n1 [Compound 226, (S)-N-(1-(4-(4-(6-amino-5-methoxypyridin-3-yl)-2-isopropyl-1H-imidazol-5-yl)pyrimidin-2-ylamino)propan-2-yl)-2-methoxyacetamide]
0.0006	COc1cc(-c2nc(C(C)(C)C)n(C)c2-c2ccnc(NCC(C)C)n2)cnc1N [Compound 228, 4-(4-(6-amino-5-methoxypyridin-3-yl)-2-tert-butyl-1-methyl-1H-imidazol-5-yl)-N-isobutylpyrimidin-2-amine]
0.0001	COc1cc(Nc2nccc(-c3[nH]c(C(C)(C)C)nc3-c3cnc(N)c(OC)c3)n2)ccn1 [Compound 230, 4-(4-(6-amino-5-methoxypyridin-3-yl)-2-tert-butyl-1H-imidazol-5-yl)-N-(2-methoxypyridin-4-yl)pyrimidin-2-amine]
